From publication PMC6062979 (BMC Complementary and Alternative Medicine, 2018) come the findings set out here.

Data set [1] concerns T. cruzi Epi. Nature of the data set: Anti-parasitic activity on T. cruzi epimastigotes (Trypan Blue differential count). The note with it: for IC50: Trypanosoma cruzi, read-out: Epi IC50 ± SD, epimastigotes, 72 h; for IC50 / Epi IC50 ± SD: 72 h; for Epi SI (CC50/IC50): Vero CC50 / epimastigote IC50; for Epi IC50 ± SD: epimastigotes. As to the method:
(§1) Vero lineage derived from African Green Monkey Kidney (Vero, ATCC CCL-81) was used for selectivity index determination and for Tryp and Amas production. These cells were grown on DMEM (Life Technology, CA, USA) media, pH: 7.4; supplemented with 10% of inactivated Fetal Bovine Serum (FBSi), 1000 U/mL of penicillin, and 100 μg/mL of streptomycin; and incubated at 37 °C with 90% humidity and a 5% CO2 atmosphere. Epi of T. cruzi I (TcI) SYLVIO-X10 strain, were donated by Dr. Marcos López-Casillas, from Fundación Cardiovascular de Colombia and grown in LIT medium (Merck) supplemented with 10% FBSi, and incubated at 28 °C. The Trypomastigotes Derived from Cells (TDC) were obtained by infection of a confluent monolayer of Vero cells with 12 day-old stationary growth phase Epi and incubated under the same conditions described above for Vero cells.
(§2) T. cruzi Epi (5 × 10^5 Epi/mL) and TDC (5 × 10^5 cells/mL) in the exponential growth phase were plated in a 96-well standard microplate in LIT medium (at 28 °C) and in D-MEM medium (at 37 °C in a 5% CO2 atmosphere), respectively. Both cultures were supplemented with 10% FBSi. For the trypanocidal assays, the EOs or their terpenes were added at varying concentrations (3.7 to 100 μg/mL) and incubated at the same culture conditions for 72 (Epi) or 24 h (Tryp). The growth inhibition was estimated by light microscopy through a differential count using the Trypan Blue (Gibco) dye exclusion technique. […] For Amas assays, a monolayer of Vero cells (3 × 10^5 cel/mL) was infected with TDC in a 1:3 cell:parasite ratio and incubated for 24 h until Amas development occurred. Then, these intracellular forms were exposed for 120 h to EOs or terpenes in a treatment applied in two doses (at 0 and 48 h), under the same conditions described above. Growth inhibition analysis was assessed in Giemsa-stained films using light microscopy to determine the infected and uninfected cell percentage in a total of 300 cells. Cells without treatment and those treated with BNZ were used as negative and positive controls, respectively.

Data set [2] is described as follows: Cytotoxic activity on Vero cells (WST-1). The following applies: African green monkey, pH 7.4. The method, then:
as §1
(§3) Vero cells (3 × 10^5 cel/mL) were incubated at 37 °C in a 5% CO2 atmosphere and at 95% humidity for 24 h to ensure the formation of a confluent monolayer. After this time, the cells were treated with the EOs or their terpenes in four different concentrations (11.1, 33.3, 100, and 300 μg/mL). Thereafter, the lineages were incubated for 70 h at 37 °C in a 5% CO2 atmosphere and re-incubated 2 more hours with WST-1 (Roche, Mannheim, Germany), after which Optical Density (OD) measurements were analyzed by spectrophotometry. The cytotoxicity percentage was calculated using [(OD450nm Control – OD450nm treatment) / […])] × 100. The results were expressed as Cytotoxic Concentration 50 (CC50).
For orientation: Formazan colour is commonly taken as a measure of viable cells.

For a further data set, the system named is T. cruzi Tryp (TDC). Nature of the data set: Anti-parasitic activity on T. cruzi trypomastigotes derived from cells (Trypan Blue differential count). The note with it: for IC50: Trypanosoma cruzi, read-out: Tryp IC50 SD, trypomastigotes, 24 h; for IC50 / Tryp IC50 SD: 24 h; for Tryp SI (CC50/IC50): Vero CC50 / trypomastigote IC50; for Tryp IC50 SD: trypomastigotes. As to the method:
as §1, §2

Data set [3] deals with T. cruzi Epi. As to the kind of experiment: Flow cytometry Annexin V / SYTOX Green cell death analysis on epimastigotes. The following applies: 48 h at 2xIC50, flow cytometry. The class given is cell-based, Trypanosoma cruzi. As to the method:
For cell death characterization, an Annexin V/Dead with SYTOX® Green (Molecular Probes, Invitrogen) kit was used following the procedure specified in the manufacturer’s instructions. The phosphatidylserine externalization was determined by employing a recombinant Annexin V conjugated to the Orange Fluorescent phycobiliprotein R-PE, and to the necrotic cells using SYTOX™ Green nucleic acid stain. Briefly, 1 × 10^6 Epi per mL were treated with 2xIC50 for 48 h, washed, and suspended in 1X Annexin-Binding Buffer.
For orientation: A flow cytometer gives signals particle by particle.

In data set [4] the test system is T. cruzi Epi. As to the kind of experiment: Morphological analysis by optical and fluorescent microscopy (DIC, DAPI, MitoTracker). The class given is cell-based, Trypanosoma cruzi. The note with it: 2xIC50, 48 h. As to the method: (§4) The death phenotype was analyzed by optical and fluorescent microscopy using phase contrast (fluorescence microscopy, Nikon Eclipse Ni). […] Determination of an oligonucleosomal-DNA ladder in treated parasites was also evaluated through DNA gel electrophoresis. Evaluation of the mitochondrial potential membrane in living parasites was performed with MitoTracker Red CMXRos (579 nm/599 nm […] wavelength). As a positive and negative apoptosis control, a 15 day-old Epi culture and an untreated fresh parasite culture were used, respectively.

In the next data set the test system is T. cruzi Amas. Nature of the data set: Anti-parasitic activity on intracellular T. cruzi amastigotes in Vero cells (Giemsa count). In kind it is cell-based, Trypanosoma cruzi. The note with it: for IC50: Trypanosoma cruzi, Vero, read-out: Amas IC50 ± SD; for IC50 / Amas IC50 ± SD: intracellular amastigotes in Vero, 120 h, two doses (0 and 48 h); for Amas SI (CC50/IC50): Vero CC50 / amastigote IC50. The method, then: as §1, §2

A further data set relates to Vero cells. As to the kind of experiment: Cytotoxic activity on Vero cells (WST-1). The note with it: Vero cells, 72 h, WST-1. As to the method:
as §1, §3

Data set [5] concerns T. cruzi Epi. Nature of the data set: DNA fragmentation by TUNEL assay on epimastigotes. In kind it is cell-based, Trypanosoma cruzi. The following applies: for DNA fragmentation (positive TUNEL) percentage: Epi, 48 h, 2xIC50; for TUNEL assay result: treated parasites. As to the method: as §4
Setting [6] is: Vero cells (ATCC CCL-81), kidney.

≈ marks a conversion by molar mass, not a printed value. Entries after “also recorded” stand apart in the source; their conditions may differ.

For orientation: IC50 means the concentration needed to halve the response being measured. As usually defined, the CC50 is the concentration that lowers cell viability or growth by half. With `CC(C)=CCCC(C)=CC=O` (mixture of isomers) [Citral, citral], in the data set on T. cruzi Epi [1], the IC50 was found to be 37.2 µg/mL, the “Epi SI (CC50/IC50)” value is listed as 2.4 and the “Epi IC50 ± SD” value amounted to 37 ± 0.7 µg/mL. Further, in data set [2] (setting [6]), half-maximal cytotoxicity (CC50 at 72 h) was put at 90 ± 3.9 µg/mL. In the data set with T. cruzi Tryp (TDC), the IC50 worked out at 20.8 µg/mL, the “Tryp SI (CC50/IC50)” value is recorded as 4.3 and the “Tryp IC50 SD” value worked out at 21 ± 1 µg/mL. Besides, the “percentage of cell death” value in the data set with T. cruzi Epi [3] stood at 78.4%. Also, in the data set on T. cruzi Epi [4], the “morphological changes of treated parasites” value (shortened to “morphological changes”) is given as “typical characteristics of apoptosis”. Besides, in the data set on T. cruzi Amas, the half-inhibitory concentration (IC50) came out at 49 ± 2.3 µg/mL and the “Amas SI (CC50/IC50)” value is reported as 1.8.
For `O=C(Cn1ccnc1[N+](=O)[O-])NCc1ccccc1` [BNZ, Benznidazole, reference compound], in the data set on T. cruzi Epi [1], the IC50 stood at 17 ± 0.9 µg/mL (≈ 65.3 µM) and the “Epi SI (CC50/IC50)” value amounted to 8.2. The same compound gave a cytotoxic concentration (CC50) at 72 h in data set [2] (setting [6]) of 139 ± 2.3 µg/mL (≈ 534 µM). In the data set on T. cruzi Tryp (TDC), the IC50 came out at 1.2 ± 0.1 µg/mL (≈ 4.61 µM) and the “Tryp SI (CC50/IC50)” value is on record as 116.3. In the data set on T. cruzi Epi [4], the “morphological changes” value was “cellular edema and loss of cellular membrane integrity, but with conserved mitochondrial energetic potential”. In the data set with T. cruzi Amas, the IC50 worked out at 6 ± 0.9 µg/mL (≈ 23.1 µM), the “Amas SI (CC50/IC50)” value was found to be 22.4 and the “Amas IC50 ± SD” value was 6.2 ± 0.9 µg/mL.
Take `C=C(C)[C@H]1CC=C(C)C(=O)C1` [Carvone, S (+) carvone]: in the data set with T. cruzi Epi [1], the IC50 is 177 ± 7.9 µg/mL (≈ 1180 µM) and the “Epi SI (CC50/IC50)” value is reported as 1.4. Besides, the CC50 at 72 h in data set [2] worked out at 240 ± 4.1 µg/mL (≈ 1600 µM). In addition, in the data set with T. cruzi Tryp (TDC), the IC50 turned out to be 124 ± 8 µg/mL (≈ 825 µM) and the “Tryp SI (CC50/IC50)” value is reported as 1.9. Besides, in the data set with T. cruzi Amas, the IC50 is above 100 µg/mL.
As for `C=C(C)[C@H]1CC=C(C)CC1` [Limonene, D (+) limonene], the “Vero CC50 ± SD” value in the data set with Vero cells worked out at 297 ± 2.4 µg/mL. The “Tryp IC50 SD” value in the data set with T. cruzi Tryp (TDC) stood at 9 ± 0.8 µg/mL. Besides, the “percentage of cell death” value in the data set with T. cruzi Epi [3] was 89.2%. Moreover, in the data set on T. cruzi Epi [5], the “DNA fragmentation (positive TUNEL) percentage” value is 94% and the TUNEL assay result is listed as “positive”. The “morphological changes” value with T. cruzi Epi [4] was “typical characteristics of apoptosis”. Besides, in the data set with T. cruzi Amas, the “Amas IC50 ± SD” value came out at 29 ± 0.7 µg/mL. Also, the “Amas IC50 ± SD” value with T. cruzi Amas (listed as limonene) came out at 28.7 µg/mL.
For the compound (−) caryophyllene oxide [CarOx], in the data set on T. cruzi Epi [1], the “Epi SI (CC50/IC50)” value came to 4.3 and the “Epi IC50 ± SD” value is 30 ± 1.7 µg/mL. Further, the “cell death percentage (CDP) on Epi” value in the data set with T. cruzi Epi [1] (at 50 μg/mL) was found to be 78 ± 2.3%. Further, in the data set on T. cruzi Epi [1] (listed as caryophyllene oxide), the “Epi IC50 ± SD” value was 29.8 µg/mL. Moreover, the “Vero CC50 ± SD” value with Vero cells is 128 ± 4.2 µg/mL. For the same compound, in the data set on T. cruzi Tryp (TDC), the “Tryp SI (CC50/IC50)” value came to 5.9 and the “Tryp IC50 SD” value worked out at 22 ± 0.3 µg/mL. Also, the “cell death percentage (CDP) on Tryp” value in the data set on T. cruzi Tryp (TDC) (at 50 μg/mL) was 98 ± 0.5%. Moreover, the “Tryp IC50 SD” value in the data set with T. cruzi Tryp (TDC) (listed as caryophyllene oxide) was 21.6 µg/mL. Besides, in the data set on T. cruzi Epi [3], the “percentage of cell death” value stood at 95.7%. Moreover, in the data set on T. cruzi Epi [5], the “DNA fragmentation (positive TUNEL) percentage” value is given as 99% and the TUNEL assay result is listed as “positive”. For the same compound, in the data set on T. cruzi Epi [4], the “morphological changes” value is recorded as “flagellum to be lost; also recorded: typical characteristics of apoptosis”. Further, in the data set on T. cruzi Amas, the “Amas SI (CC50/IC50)” value is recorded as 2.7 and the “Amas IC50 ± SD” value turned out to be 47 ± 1.0 µg/mL. The “Amas IC50 ± SD” value in the data set on T. cruzi Amas (listed as caryophyllene oxide) worked out at 47.4 µg/mL.
